For 20 compounds, ED50, Metrazole % protected and Electroshock % protected results are on record in patent publication US5095014A, “3-(2-chloro-4-(trifluoromethyl)phenoxy)-1-azetidine carboxamides having anticonvulsant activity” (A. H. Robins Company, Incorporated, priority 1990, dated 1992).

Experiment [1] concerns tonic seizures (electrically induced convulsions). In words: Maximal Electroshock (percent protection from tonic seizures). The note with it: mice; for ED50: Mus musculus, ip, 0.5 h, intraperitoneal, 30 minutes prior to electrical challenge. The experiment is classed as in vivo. As for the experimental part: (§1) The pharmacological tests used are (1) maximal electroshock and (2) pentylenetetrazole (Metrazole®) chemical challenge where the percent protection afforded by the test compounds against convulsions induced by electrical stimulus or by the drug Metrazole is determined. These test procedures are described further hereinbelow.
(§2) The pharmacological test data are expressed either as an ED50 (mg/kg) or percent protection/dose (mg/kg) for test compounds administered intraperitoneally (IP) in mice.
Adult female mice in groups of eight were administered the test drug intraperitoneally (usually 100 mg/kg initially for screening) in liquid carrier (10 mg/ml), usually physiological saline or water, 30 minutes prior to electrical challenge. Animals were challenged electrically by placing brass electrodes on the corneas and applying an electrical stimulus (60 Hz, 5 m sec. pulse width, 34 mA intensity) for 0.2 seconds by way of a Grass Stimulator® and constant current unit and a Hunter Timer®. The absence of tonic seizures upon cessation of the stimuli was scored as protection in that animal. The number of animals protected from tonic seizures at a given dose of test drug was determined. […] EXP. THER. 96, 99-113.

Experiment [2] has as its system pentylenetetrazol-induced convulsions. In words: Metrazole Chemical Challenge (Swinyard Method). It is filed as in vivo. The settings on record: mice; for ED50: Mus musculus, ip, 0.5 h, intraperitoneal, 1/2 hour before Metrazole 80 mg/kg S.C. The procedure:
as §1, §2
Groups of 8 adult female mice were randomly assigned to dosage groups according to the method of Steel, R. G. D., and Torrie, J. H. (1960) in "Principles and Procedures of Statistics", McGraw-Hill Book Company, Inc., pp 99-100, pp 428-31. Each mouse was identified with a color code on its tail. The test compounds were administered as solutions or suspensions in 10 ml/kg mouse body weight of 0.5% aqueous methyl cellulose within 15 minutes of preparation of the suspension. Metrazole® (pentylenetetrazol) was prepared as a solution in physiological saline. The mice were not fasted prior to the test. Eight mice were tested at each dosage level.
Each mouse received one dose of the test drug (usually 100 mg/kg for screening) in the 0.5% aqueous methylcellulose or the control article (0.5% aqueous methylcellulose alone) intraperitoneally. Metrazole (80 mg/kg S.C.) was then given in a loose fold of skin on the back of the neck, 1/2 hour after the test compound or control article was given. All injections were given in a volume of 10 ml/kg mouse body weight. […] Anticonvulsant data were tabulated as the percent protection, i.e., [formula] […] Hefner Publishing Co.

`NC(=O)N1CC(Oc2ccc(C(F)(F)F)cc2Cl)C1` [Example 1, 3-[2-Chloro-4-(trifluoromethyl)phenoxy]-1-azetidinecarboxamide]: the ED50 turned out to be 8.5 mg/kg in experiment [1] and 11.5 mg/kg in experiment [2].

`CNC(=O)N1CC(Oc2ccc(C(F)(F)F)cc2Cl)C1` [Example 2, 3-[2-Chloro-4-(trifluoromethyl)phenoxy]-N-methyl-1-azetidinecarboxamide]: the ED50 in experiment [1] is 6.4 mg/kg; in experiment [2], 11.3 mg/kg.

In experiment [1], `C=CCNC(=O)N1CC(Oc2ccc(C(F)(F)F)cc2Cl)C1` [Example 3, 3-[2-Chloro-4-(trifluoromethyl)phenoxy]-N-(2-propenyl)-1-azetidinecarboxamide] returned a 50% effective dose (ED50) of 9.5 mg/kg. The Metrazole % protected in experiment [2] (dose 10 mg/kg IP) was determined as 12.5%; in experiment [2] (dose 36 mg/kg IP), 0%.

The compound `CN(C)C(=O)N1CC(Oc2ccc(C(F)(F)F)cc2Cl)C1` [Example 4, 3-[2-Chloro-4-(trifluoromethyl)phenoxy]-N,N-dimethyl-1-azetidinecarboxamide] showed an ED50 in experiment [1] of 8.2 mg/kg. The Metrazole % protected in experiment [2] (dose 31.6 mg/kg IP) was found to be 37.5%; in experiment [2] (dose 52 mg/kg IP), 0%; in experiment [2] (dose 100 mg/kg IP), 0%.

`CNC(=O)N1CC(Oc2ccccc2C(F)(F)F)C1` [Example 5, 3-[2-(Trifluoromethyl)phenoxy]-N-methyl-1-azetidinecarboxamide] yielded an ED50 in experiment [1] of 125 mg/kg. The Metrazole % protected in experiment [2] (dose 120 mg/kg IP) was found to be 0%.

Compound `CNC(=O)N1CC(Oc2cccc(C(F)(F)F)c2)C1` [Example 6, N-Methyl-3-[3-(trifluoromethyl)phenoxy]-1-azetidinecarboxamide] gave an ED50 in experiment [1] of 29 mg/kg.

In the case of `CNC(=O)N1CC(Oc2ccc(C(F)(F)F)cc2)C1` [Example 7, 3-(4-Trifluoromethylphenoxy)-N-methyl-1-azetidinecarboxamide], the figures for the ED50 in experiment [1] and in experiment [2] were 25.7 mg/kg and 33 mg/kg, respectively.

Compound `CNC(=O)N1CC(Oc2ccccc2Cl)C1` [Example 8, 3-(2-Chlorophenoxy)-N-methyl-1-azetidinecarboxamide] displayed an Electroshock % protected in experiment [1] (dose 56.2 mg/kg IP) of 0%. This compound also registered a Metrazole % protected in experiment [2] (dose 100 mg/kg IP) of 0%.

In experiment [1], `CNC(=O)N1CC(Oc2cccc(Cl)c2)C1` [Example 9, 3-(3-Chlorophenoxy)-N-methyl-1-azetidinecarboxamide] displayed an ED50 of 45.5 mg/kg. This compound also came in with a Metrazole % protected in experiment [2] (dose 100 mg/kg IP) of 37.5%.

As for `CNC(=O)N1CC(Oc2ccc(Cl)cc2)C1` [Example 10, 3-(4-Chlorophenoxy)-N-methyl-1-azetidinecarboxamide], the ED50 turned out to be 23.8 mg/kg in experiment [1] and 50 mg/kg in experiment [2].

`NC(=O)N1CC(Oc2ccc(Cl)cc2Cl)C1` [Example 11, 3-(2,4-Dichlorophenoxy)-1-azetidinecarboxamide]: the Electroshock % protected in experiment [1] (dose 17.8 mg/kg IP) was 0%; in experiment [1] (dose 31.6 mg/kg IP), 100%. For the same compound, the ED50 in experiment [2] worked out at 31.6 mg/kg.

On to `CN(C)C(=O)N1CC(Oc2ccc(Cl)cc2Cl)C1` [Example 12, 3-(2,4-Dichlorophenoxy)-N,N,-dimethyl-1-azetidinecarboxamide], for which the Electroshock % protected in experiment [1] (dose 17.8 mg/kg IP) is given as 0%; in experiment [1] (dose 31.6 mg/kg IP), 100%.

With `CNC(=O)N1CC(Oc2ccc(Cl)cc2Cl)C1` [Example 13, 3-(2,4-Dichlorophenoxy)-N-methyl-1-azetidinecarboxamide], the results for the ED50 in experiment [1] and in experiment [2] were 18.5 mg/kg and 40.9 mg/kg, respectively.

In the case of `Cc1cccc(Cl)c1OC1CN(C(N)=O)C1` [Example 14, 3-(2-Chloro-6-methylphenoxy)-1-azetidinecarboxamide], in experiment [1], the 50% effective dose (ED50) came out at 81.5 mg/kg.

For `Cc1cccc(Cl)c1OC1CN(C(=O)N(C)C)C1` [Example 15, 3-(2-Chloro-6-methylphenoxy)-N,N-dimethyl-1-azetidinecarboxamide], the Electroshock % protected in experiment [1] (dose 31.6 mg/kg IP) is given as 37.5-62.5%.

Turning to `CNC(=O)N1CC(Oc2c(C)cccc2Cl)C1` [Example 16, 3-(2-Chloro-6-methyphenoxy)-N-methyl-1-azetidinecarboxamide], the ED50 in experiment [1] came out at 53 mg/kg.

Consider `CNC(=O)N1CC(Oc2ccc(F)cc2Cl)C1` [Example 17, 3-(2-Chloro-4-fluorophenoxy)-N-methyl-1-azetidinecarboxamide], for which the ED50 in experiment [1] is 44.5 mg/kg; in experiment [2], 32.8 mg/kg.

In the case of `CNC(=O)N1CC(Oc2cc(C(F)(F)F)ccc2Cl)C1` [Example 18, 3-[2-Chloro-5-(trifluoromethyl)phenoxy]-N-methyl-1-azetidinecarboxamide], the Electroshock % protected in experiment [1] (dose 56.2 mg/kg IP) stood at 37.5%; in experiment [1] (dose 100 mg/kg IP), 50%.

In the case of `CNC(=O)N1CC(Oc2cc(C(F)(F)F)ccc2F)C1` [Example 19, 3-[2-Fluoro-5-(trifluoromethyl)phenoxy]-N-methyl-1-azetidine-carboxamide], the Electroshock % protected in experiment [1] (dose 31.6 mg/kg IP) and in experiment [1] (dose 56.2 mg/kg IP) was 50% each time.

For `CNC(=O)N1CC(Oc2ccc(Cl)c(Cl)c2)C1` [Example 20, 3-(3,4-Dichlorophenoxy)-N-methyl-1-azetidinecarboxamide], the ED50 was determined as 39.5 mg/kg in experiment [1] and 49.5 mg/kg in experiment [2].
